Data taken from US20130259830A1, “CRTH2 MODULATORS” (Ironwood Pharmaceuticals, Inc., priority 2010, published 2013).

Columns and labels:
[1] = target: T1, CRTH2 (Homo sapiens, UniProt Q9Y5Y4); assay: Human whole blood CD11b antagonist assay (CD11b expression in eosinophils challenged with 15-R-methyl-PGD2); type: cell-based; details: 37° C. 10 minutes preincubation, agonist 15R-Methyl-PGD2 10 nM, eosinophils gated by flow cytometry
T1 construct: endogenous in cells; host or cells: eosinophils in human whole blood
T1 sequence (Q9Y5Y4 1-395): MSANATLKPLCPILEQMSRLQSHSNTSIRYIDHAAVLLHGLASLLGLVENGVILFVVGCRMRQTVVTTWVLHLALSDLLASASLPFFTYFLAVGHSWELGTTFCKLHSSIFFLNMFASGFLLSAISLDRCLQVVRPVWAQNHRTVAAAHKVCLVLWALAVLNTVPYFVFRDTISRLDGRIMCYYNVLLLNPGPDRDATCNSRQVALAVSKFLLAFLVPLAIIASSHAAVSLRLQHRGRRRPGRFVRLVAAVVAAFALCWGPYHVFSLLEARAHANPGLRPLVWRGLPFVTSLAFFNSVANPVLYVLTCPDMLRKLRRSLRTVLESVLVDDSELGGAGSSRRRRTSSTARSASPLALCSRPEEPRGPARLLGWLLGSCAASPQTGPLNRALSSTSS
Procedure: Human Whole Blood […] Antagonist Assay (Modified from Nicholson, et al. Pulmonary Pharmacology and Therapeutics: 20 (2007); 52-59).
The potential CRTH2 antagonist activity of certain compounds was tested in human whole blood using an assay that tests the ability of the compounds to block the CD11b expression in eosinophils by 15-R-methyl-PGD2. A CRTH2 antagonist should block CD11b expression by subsequently added 15-Methyl-PGD2. Human whole blood (200 μL) was incubated at 37° C. for 10 minutes in the presence of various concentrations of test compounds before being challenged with the agonist 1-5R-Methyl-PGD2 (10 nM). Reactions were terminated by the addition of ice-cold PBS+0.5% BSA+2 mM EDTA (1 mL) and centrifugation (300×g for 5 minutes at 4° C.) Cells were then incubated at 4° C. for 10 min in the presence of human IgG. Cells were then incubated for 30-45 min with a mixture of PE-Cy5-labeled mouse anti-human CD16 (10 ul; BD Biosciences) and FITC-labeled mouse anti-human CD11b (10 μL; Beckman Coulter.) After rinsing (1 mL ice-cold PBS+0.5% BSA+2 mM EDTA), red blood cells were lysed by the addition of 1 mL ice-cold H2O to the cell pellet for 30 sec-1 min immediately followed by the addition of 3.5% NaCl (300 μL.) Cells were then rinsed (2×−1 ml ice cold PBS+0.5% BSA+2m MEDTA) and fixed in PBS containing 1% formaldehyde. The distribution of fluorescence intensities was measured by flow cytometry. Eosinophils were gated out on the basis of their granularity (high side scatter) and absence of CD-16. CD11b was then measured on this eosinophil population on the basis of fluorescence due to FITC.

[2] = target: T1, CRTH2; assay: DPBS CD11b antagonist assay (CD11b expression in eosinophils challenged with 15R-Methyl-PGD2); type: cell-based; details: polymorphonuclear cells in PBS with CaCl2/MgCl2; agonist 15R-Methyl-PGD2 10 nM; eosinophils gated by flow cytometry
Procedure: DPBS CD111b Antagonist Assay.
The potential CRTH2 antagonist, activity of certain compounds was tested using a CD11b expression assay using essentially the method described by Monneret et al. (J Pharmacol Exp Ther 304:349-55, 2003). Briefly, polymorphonuclear cells (0.5 ml; 10^6/ml cells) in PBS containing 0.9 mM CaCl2 and 0.5 mM MgCl2) were preincubated with various concentrations of test compounds at room temperature for 10 minutes before they were challenged with the agonist 15R-Methyl-PGD2 (10 nM). The incubations were terminated by the addition of ice-cold FACSFlow (BD Biosciences; Cat#342003) and centrifugation (400 g for 5 minutes at 4° C.). The cells were then incubated for 30 minutes at 4° C. with a mixture of PE-labeled mouse anti-human VLA-4 (5 μl; BD Biosciences) and FITC-labeled mouse anti-human CD11b (10 μl; Beckman Coulter). The cells were then incubated with Optilyse C (0.25 ml; Beckman Coulter) for 15 minutes, centrifuged, and then fixed in PBS (0.4 ml; calcium and magnesium free) containing 1% formaldehyde. The distribution of fluorescence intensities among 60,000 cells was measured by flow cytometry. Eosinophils were gated out on the basis of their granularity (high side scatter) and labeling with VLA-4 (PE fluorescence). CD11b was then measured in the eosinophil region on the basis of fluorescence due to FITC. All data were corrected for the value obtained for the corresponding isotope control antibody.

Row | SMILES | IC50 [1] [nM] | IC50 [2] [nM]
1 | Cc1ccc(S(=O)(=O)c2ncccc2Cc2c3c(n(CC(=O)O)c2C)CC(C)(C)CC3=O)cc1 [Compound I-20, 2-(2,6,6-Trimethyl-4-oxo-3-((2-tosylpyridin-3-yl)methyl)-4,5,6,7-tetrahydro-1H-indol-1-yl)acetic acid] | 5 to 20 | < 1
2 | Cc1c(Cc2ccccc2N(C)S(=O)(=O)c2ccc(C(C)C)cc2)c2c(n1CC(=O)O)CC(C)(C)CC2=O [Compound I-34, 2-(3-(2-(4-Isopropyl-N-methylphenylsulfonamido)benzyl)-2,6,6-trimethyl-4-oxo-4,5,6,7-tetrahydro-1H-indol-1-yl)acetic acid] | 500 to 3000 | 5 to 20
3 | Cc1c(Cc2cccnc2S(=O)(=O)c2ccccc2C(F)(F)F)c2c(n1CC(=O)O)CC(C)(C)CC2=O [Compound I-17, 2-(2,6,6-Trimethyl-4-oxo-3-((2-(2-(trifluoromethyl)phenylsulfonyl)pyridin-3-yl)methyl)-4,5,6,7-tetrahydro-1H-indol-1-yl)acetic acid] | 5 to 20 | < 1
4 | CCOC(=O)Cn1c(C)c(Cc2cccnc2S(=O)(=O)c2cccc(OC)c2)c2c1CC(C)(C)CC2=O [Compound I-11, Ethyl 2-(3-((2-(3-methoxyphenylsulfonyl)pyridin-3-yl)methyl)-2,6,6-trimethyl-4-oxo-4,5,6,7-tetrahydro-1H-indol-1-yl)acetate] | 500 to 3000 | 100 to 500

Second part, the compound after the results:

Row | IC50 [1] [nM] | IC50 [2] [nM] | SMILES
5 | 1 to 5 | < 1 | Cc1c(Cc2ccccc2S(=O)(=O)N2CCOCC2)c2c(n1CC(=O)O)CCNC2=O [Compound I-50, 2-(2-Methyl-3-(2-(morpholinosulfonyl)benzyl)-4-oxo-4,5,6,7-tetrahydro-1H-pyrrolo[3,2-c]pyridin-1-yl)acetic acid]
6 | 500 to 3000 | 5 to 20 | CCOC(=O)Cn1c(C)c(Cc2cccnc2S(=O)(=O)c2ccc(OC)cc2)c2c1CC(C)(C)CC2=O [Compound I-6, ethyl 2-(3-((2-(4-methoxyphenylsulfonyl)pyridin-3-yl)methyl)-2,6,6-trimethyl-4-oxo-4,5,6,7-tetrahydro-1H-indol-1-yl)acetate]
7 | 1 to 5 | < 1 | Cc1ccc(S(=O)(=O)Nc2ccccc2Cc2c3c(n(CC(=O)O)c2C)CC(C)(C)CC3=O)cc1 [Compound I-23, 2-(2,6,6-Trimethyl-3-(2-(4-methylphenylsulfonamido)benzyl)-4-oxo-4,5,6,7-tetrahydro-1H-indol-1-yl)acetic acid]
